Results published in patent US10087188B2, “Benzamide imidazopyrazine Btk inhibitors” (MERCK SHARP & DOHME CORP., priority 2014, dated 2018).
Where two headings read alike, the source gives them in different places.

Legend:
[1] = target: BTK enzyme (recombinant full-length BTK, hBTK) (Homo sapiens (Human), UniProt Q06187); experiment: Btk enzyme activity assay, LANCE TR-FRET; type: biochemical; conditions: 50 pM hBTK, 2 μM biotin-A5-peptide, 25 μM ATP; 60 minute compound & enzyme incubation; read-out: BTK binding IC50
BTK enzyme (recombinant full-length BTK, hBTK), sequence (Q06187 whole entry): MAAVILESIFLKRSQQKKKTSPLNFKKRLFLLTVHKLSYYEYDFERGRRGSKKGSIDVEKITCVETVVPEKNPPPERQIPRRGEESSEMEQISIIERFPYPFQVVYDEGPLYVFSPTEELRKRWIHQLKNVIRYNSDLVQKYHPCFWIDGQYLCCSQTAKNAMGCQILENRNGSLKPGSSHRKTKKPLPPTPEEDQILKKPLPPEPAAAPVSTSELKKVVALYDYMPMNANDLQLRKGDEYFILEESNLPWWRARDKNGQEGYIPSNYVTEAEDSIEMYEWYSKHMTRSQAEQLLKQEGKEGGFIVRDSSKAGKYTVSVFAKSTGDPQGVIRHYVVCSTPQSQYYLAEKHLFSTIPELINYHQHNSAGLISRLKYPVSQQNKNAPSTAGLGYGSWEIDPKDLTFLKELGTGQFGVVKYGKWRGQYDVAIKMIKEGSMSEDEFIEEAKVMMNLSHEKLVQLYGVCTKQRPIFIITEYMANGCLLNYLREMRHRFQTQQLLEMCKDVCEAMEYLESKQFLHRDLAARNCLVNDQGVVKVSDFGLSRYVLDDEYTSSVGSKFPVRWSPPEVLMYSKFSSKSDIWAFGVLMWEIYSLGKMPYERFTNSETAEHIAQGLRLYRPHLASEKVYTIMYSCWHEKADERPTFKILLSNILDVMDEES
Experimental: Btk Enzyme Activity Assay Methods
BTK enzymatic activity was determined with the LANCE (Lanthanide Chelate Excite) TR-FRET (Time-resolved fluorescence resonance energy transfer) assay. […] After 60 minutes incubation with detection reagents, reaction plates were read on a PerkinElmer EnVision plate reader using standard TR-FRET protocol.

HeLa cells = experiment: [3H] Adenosine uptake assay; type: cell-based; conditions: accumulation of tritiated adenosine into HeLa cells, compound concentration range 10 μM to 0.032 nM, read-out: ADU inhibition IC50 (adenosine uptake inhibition potency)
Summary of the method: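 HeLa cells in HBSS + 5% FBS preincubated 30 min at ambient temperature with compound (0.25% DMSO), then [3H]adenosine (500 nM stock) added for 60 min. Uptake measured by scintillation proximity counting; IC50 from 4-parameter fit of counts vs log concentration.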

For C[C@H]1CO[C@@H](c2nc(-c3ccc(C(=O)Nc4cc(C(F)(F)F)ccn4)cc3)c3c(N)nccn23)CN1C(=O)C12CC(C(=O)O)(C1)C2 [Example 175, 3-((2R,5S)-2-(8-amino-1-(4-((4-(trifluoromethyl)pyridin-2-yl)carbamoyl)phenyl)imidazo[1,5-a]pyrazin-3-yl)-5-methylmorpholine-4-carbonyl)bicyclo[1.1.1]pentane-1-carboxylic acid], the IC50 [1] was 0.37 nM and the IC50 (HeLa cells; Homo sapiens, HeLa) was 10000 nM.

Molecule CC1(C(=O)O)CCC(N2CCO[C@@H](c3nc(-c4ccc(C(=O)Nc5cc(C(F)(F)F)ccn5)cc4)c4c(N)nccn34)C2)CC1 (stereo partly drawn) [Example 176, (R)-4-(2-(8-amino-1-(4-((4-(trifluoromethyl)pyridin-2-yl)carbamoyl)phenyl)imidazo[1,5-a]pyrazin-3-yl)morpholino)-1-methylcyclohexanecarboxylic acid] has an IC50 [1] of 0.49 nM and an IC50 (HeLa cells; Homo sapiens, HeLa) of 1320 nM.

With COc1cc(C(=O)Nc2cc(C(F)(F)F)ccn2)ccc1-c1nc([C@H]2CN(C(=O)C34CC(C(=O)O)(C3)C4)[C@@H](C)CO2)n2ccnc(N)c12 [Example 177, 3-({(2R,5S)-2-[8-amino-1-(2-methoxy-4-{[4-(trifluoromethyl)pyridin-2-yl]carbamoyl}phenyl)imidazo [1,5-a]pyrazin-3-yl]-5-methylmorpholin-4-yl}carbonyl)bicyclo[1.1.1] pentane-1-carboxylic acid] the IC50 [1] was 0.76 nM and the IC50 (HeLa cells; Homo sapiens, HeLa) was 10000 nM.

In the case of Nc1nccn2c([C@H]3CN(C4CC(C(=O)O)C4)CCO3)nc(-c3ccc(C(=O)Nc4cc(C(F)(F)F)ccn4)cc3)c12 (stereo partly drawn) [Example 179, 3-{(2R)-2-[8-amino-1-(4-{[4-(trifluoromethyl)pyridin-2-yl]carbamoyl}phenyl)imidazo [1,5-a]pyrazin-3-yl]morpholin-4-yl}cyclobutanecarboxylic acid], the IC50 [1] is reported as 0.93 nM and the IC50 (HeLa cells; Homo sapiens, HeLa) is reported as 4730 nM.

For COc1cc(C(=O)Nc2cc(C(F)(F)F)ccn2)ccc1-c1nc([C@H]2CN(C3CCC(C)(C(=O)O)CC3)CCO2)n2ccnc(N)c12 (stereo partly drawn) [Example 180, 4-{(2R)-2-[8-amino-1-(2-methoxy-4-{[4-(trifluoromethyl)pyridin-2-yl]carbamoyl}phenyl)imidazo [1,5-a]pyrazin-3-yl]morpholin-4-yl}-1-methylcyclohexanecarboxylic acid], the IC50 [1] was 1.3 nM, the IC50 (HeLa cells; Homo sapiens, HeLa) was 6420 nM and the IC50 (HeLa cells) was 3940 nM.

In the case of COc1cc(C(=O)Nc2cc(C(F)(F)F)ccn2)ccc1-c1nc([C@H]2CN(C3CCC(C)(C(=O)O)CC3)[C@@H](C)CO2)n2ccnc(N)c12 (stereo partly drawn) [Example 181, 4-{(2R,5S)-2-[8-amino-1-(2-methoxy-4-{[4-(trifluoromethyl)pyridin-2-yl]carbamoyl}phenyl)imidazo [1,5-a]pyrazin-3-yl]-5-methylmorpholin-4-yl}-1-methylcyclohexanecarboxylic acid], the IC50 [1] is reported as 1.8 nM and the IC50 (HeLa cells; Homo sapiens, HeLa) is reported as 2340 nM.

CC1(C(=O)O)CCC(N2CCC[C@@H](c3nc(-c4ccc(C(=O)Nc5cc(C(F)(F)F)ccn5)cc4F)c4c(N)nccn34)C2)CC1 (stereo partly drawn) [Example 182, 4-{(3R)-3-[8-amino-1-(2-fluoro-4-{[4-(trifluoromethyl)pyridin-2-yl]carbamoyl}phenyl)imidazo [1,5-a]pyrazin-3-yl]piperidin-1-yl}-1-methylcyclohexanecarboxylic acid] showed an IC50 [1] of 1.9 nM and an IC50 (HeLa cells; Homo sapiens, HeLa) of 179 nM.

CC(C)(C(=O)O)N1CCO[C@@H](c2nc(-c3ccc(C(=O)Nc4cc(C(F)(F)F)ccn4)cc3)c3c(N)nccn23)C1 [Example 183, 2-{(2R)-2-[8-amino-1-(4-{[4-(trifluoromethyl)pyridin-2-yl]carbamoyl}phenyl)imidazo [1,5-a]pyrazin-3-yl]morpholin-4-yl}-2-methylpropanoic acid] was tested, and the IC50 [1] was 13.2 nM and the IC50 (HeLa cells; Homo sapiens, HeLa) was 665 nM.

With COc1cc(C(=O)Nc2cc(C(F)(F)F)ccn2)ccc1-c1nc([C@H]2CN(C(C)(C)C(=O)O)CCO2)n2ccnc(N)c12 [Example 184, 2-{(2R)-2-[8-amino-1-(2-methoxy-4-{[4-(trifluoromethyl)pyridin-2-yl]carbamoyl}phenyl)imidazo [1,5-a]pyrazin-3-yl]morpholin-4-yl}-2-methylpropanoic acid] the IC50 [1] was 61.2 nM and the IC50 (HeLa cells; Homo sapiens, HeLa) was 5410 nM.
